Data set [1] has as its system β-tryptase. As to conditions: inhaled, cited from earlier work.
In data set [2] the target is T1, recombinant human beta tryptase (Homo sapiens, UniProt P20231).
T1 construct: made in house; host or cells: yeast cells
The experiment in a line: beta-Tryptase inhibition, chromogenic enzyme assay (substrate S2366, read at 405 nm). It is filed as biochemical. As to conditions: Ki calculated from IC50: Ki=IC50/(1+[Substrate]/Km), 0.5 mM substrate, room temperature. A digest of the protocol: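 Recombinant human beta tryptase (yeast-expressed; native lung enzyme also used), 50 ng/mL final, with 0.5 mM (2×Km) chromogenic substrate S2366; 30 min in the dark, room temperature, read at 405 nm. Compounds at 0.01-10 μM in duplicate for IC50; Ki=IC50/(1+[S]/Km).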

Where a name gives a salt, the structure may show the parent alone. Read-outs that look alike come from different tables or passages of the source.

T1 sequence (P20231 31-275): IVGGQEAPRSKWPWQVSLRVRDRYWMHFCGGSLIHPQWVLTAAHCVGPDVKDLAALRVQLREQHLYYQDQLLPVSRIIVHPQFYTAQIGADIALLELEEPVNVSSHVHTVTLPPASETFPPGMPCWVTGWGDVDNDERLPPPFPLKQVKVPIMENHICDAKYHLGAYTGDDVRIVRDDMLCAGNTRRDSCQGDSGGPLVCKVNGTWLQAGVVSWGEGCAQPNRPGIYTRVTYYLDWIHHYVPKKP

`NC(=O)[C@@H]1CCCN1C(=O)[C@H](CCCN=C(N)N)NC(=O)c1ccc2ccccc2c1O` [APC-366]: in data set [1] (bronchial allergen challenge), the “Clinical proof-of-concept for asthma” value was “Clinical proof-of-concept”. In data set [1], the “development outcome / tolerability” value is “terminated due to bronchial irritation”.

Broadly, the melting point is the temperature of the solid-liquid transition. One may read the Ki as a dissociation constant, usually derived from enzyme kinetics or from competition with a known ligand. `COCCn1cc(C(=O)N2CCC(c3cc(CN)ccc3F)CC2)c2c(C(=O)N3CCOCC3)cccc21.Cl` [Example 59, [3-[4-(5-Aminomethyl-2-fluoro-phenyl)-piperidine-1-carbonyl]-1-(2-methoxy-ethyl)-1H-indol-4-yl]-morpholin-4-yl-methanone hydrochloride] registered a melting point of 142 to 147 °C. Besides, the Ki in data set [2] (Tryptase Ki (nM)) was 32 nM.

Turning to `COCCn1cc(C(=O)N2CCC(c3cc(CN)ccc3F)CC2)c2cccc(OC(F)(F)F)c21` [Example 1, [4-(5-Aminomethyl-2-fluoro-phenyl)-piperidin-1-yl]-[1-(2-methoxy-ethyl)-7-trifluoromethoxy-1H-indol-3-yl]-methanone hydrochloride], the inhibitory constant (Ki) in data set [2] (Tryptase Ki (nM)) was 47 nM.

`COCCn1cc(C(=O)N2CCC(c3cc(CN)ccc3F)CC2)c2c(NC(=O)C3CCCN(C)C3)cccc21` (stereo not shown) [Example 122, 1-Methyl-piperidine-3-carboxylic acid [3-[4-(5-aminomethyl-2-fluoro-phenyl)-piperidine-1-carbonyl]-1-(2-methoxy-ethyl)-1H-indol-4-yl]-amide hydrochloride]: the Ki in data set [2] (Tryptase Ki (nM)) was 44 nM.

Regarding `NCc1ccc(F)c(C2CCN(C(=O)c3cn(CCN4CCCC4)c4ccccc34)CC2)c1` [Example 38, [4-(5-Aminomethyl-2-fluoro-phenyl)-piperidin-1-yl]-[1-(2-pyrrolidin-1-yl-ethyl)-1H-indol-3-yl]-methanone dihydrochloride], the Ki in data set [2] (read-out: Tryptase Ki) is 66 nM.

Values taken from patent publication US20120245161A1 (SANOFI, priority 2009, published 2012).
